The results in this text go back to patent publication US12559474B2, “Triazine derivatives having virus replication inhibitory activity and pharmaceutical composition comprising the same” (priority 2021, dated 2026).

For orientation: EC50 means the concentration giving half of the maximal effect. A low value points to a more potent agent. For orientation: IC50 means the concentration that gives 50% inhibition.

Read-outs that look alike come from different tables or passages of the source. Bounds are passed on as bounds.

The test system of assay [1] is SARS-CoV-2. Description: microbe, parasite or virus in culture. The note with it: Severe acute respiratory syndrome coronavirus 2, VeroE6/TMPRSS2, 72 h, 50% SARS-CoV-2 infected cell death inhibitory concentration, VeroE6/TMPRSS2 cells, 3 days culture. It is filed as cell-based.
For assay [2], the target named is SARS-CoV-2 3CL protease (Severe acute respiratory syndrome coronavirus 2, UniProt P0DTD1). The experiment in a line: biochemical. Particulars: 50% SARS-CoV-2 3CL protease inhibitory concentration, read-out: IC50.

On to `Cc1cncc(-n2c(=O)nc(Nc3ccc4nn(C)nc4c3)n(Cc3ccc(F)c(C#N)c3)c2=O)c1` [II-0183], for which the EC50 in assay [1] (class symbols) was less than 1000 nM. The IC50 in assay [2] (given as class symbols) was less than 100 nM.
In assay [1] (class symbols), `Cn1cnc(Cn2c(=O)nc(Nc3cc4cn(C)nc4cc3Cl)n(Cc3cc(F)c(F)c(C#N)c3)c2=O)n1` [II-0184] yielded a 50% effective concentration (EC50) of 1000 to 10000 nM. In assay [2] (given as class symbols), the IC50 is less than 100 nM.
Consider `Cc1cncc(-n2c(=O)nc(Nc3cc4cn(C)nc4cc3Cl)n(Cc3ccc(F)cc3F)c2=O)c1` [II-0185], for which, in assay [1] (class symbols), the 50% effective concentration (EC50) is less than 1000 nM. Further, the IC50 in assay [2] (given as class symbols) was less than 100 nM.
In the case of `Cc1cncc(-n2c(=O)nc(Nc3cc4cn(C)nc4cc3Cl)n(Cc3cc(Cl)cc(C#N)c3)c2=O)c1` [II-0186], in assay [1] (class symbols), the 50% effective concentration (EC50) is 1000 to 10000 nM. In assay [2] (given as class symbols), the half-inhibitory concentration (IC50) was less than 100 nM.
In assay [1] (class symbols), `Cc1cncc(-n2c(=O)nc(Nc3cc4cn(C)nc4cc3Cl)n(Cc3cccc(F)c3F)c2=O)c1` [II-0187] displayed an EC50 of less than 1000 nM. Also, the IC50 in assay [2] (given as class symbols) was less than 100 nM.
Consider `Cc1cncc(-n2c(=O)nc(Nc3cc4cn(C)nc4cc3Cl)n(Cc3cccc(F)c3Cl)c2=O)c1` [II-0188], for which, in assay [1] (class symbols), the 50% effective concentration (EC50) was less than 1000 nM. For the same compound, the half-inhibitory concentration (IC50) in assay [2] (given as class symbols) is less than 100 nM.
In the same order, the values of `Cn1cnc(Cn2c(=O)nc(Nc3cc4cn(C)nc4cc3Cl)n(Cc3cc(F)cc(F)c3F)c2=O)n1` [II-0189] are 1000 to 10000 nM and less than 100 nM.
For `Cn1cnc(Cn2c(=O)nc(Nc3cc4cn(C)nc4cc3Cl)n(Cc3ccc(F)c(F)c3F)c2=O)n1` [II-0190], in that order: 1000 to 10000 nM and less than 100 nM.
Consider `Cc1cncc(-n2c(=O)nc(Nc3cc4sc(C)nc4cc3C)n(Cc3ccc(F)c(C#N)c3)c2=O)c1` [II-0191], for which the EC50 in assay [1] (class symbols) is less than 1000 nM. Also, the IC50 in assay [2] (given as class symbols) was less than 100 nM.
`Cc1nc2cc(C)c(Nc3nc(=O)n(-c4cncc5ccccc45)c(=O)n3Cc3ccc(F)c(C#N)c3)cc2o1` [II-0192] came in with an EC50 in assay [1] (CellTiter-Glo 2.0) of 454 nM. Further, in assay [2] (RapidFire MS), the half-inhibitory concentration (IC50) was 37 nM.
In the case of `Cc1cncc(-n2c(=O)nc(Nc3cc4sc(C)nc4cc3Cl)n(Cc3ccc(F)c(C#N)c3)c2=O)c1` [II-0193], the 50% effective concentration (EC50) in assay [1] (class symbols) is 1000 to 10000 nM. Moreover, the IC50 in assay [2] (given as class symbols) is less than 100 nM.
Turning to `Cc1cncc(-n2c(=O)nc(Nc3ccc4oc(C)c(C)c4c3)n(Cc3ccc(F)c(C#N)c3)c2=O)c1` [II-0195], the EC50 in assay [1] (class symbols) lay in the range of 1000 to 10000 nM. For the same compound, in assay [2] (given as class symbols), the IC50 was less than 100 nM.
`Cc1cncc(-n2c(=O)nc(Nc3ccc4oc(C)cc4c3)n(Cc3ccc(F)c(C#N)c3)c2=O)c1` [II-0196] displayed an EC50 in assay [1] (class symbols) of less than 1000 nM. For the same compound, the half-maximal inhibitory concentration (IC50) in assay [2] (given as class symbols) is less than 100 nM.
For `Cc1cncc(-n2c(=O)nc(Nc3ccc4nc(C)sc4c3)n(Cc3ccc(F)c(C#N)c3)c2=O)c1` [II-0197], in that order: less than 1000 nM and less than 100 nM.
As for `Cc1nc2ccc(Nc3nc(=O)n(-c4cncc5ccccc45)c(=O)n3Cc3ccc(F)c(C#N)c3)cc2s1` [II-0198], in assay [1] (class symbols), the half-maximal effective concentration (EC50) was less than 1000 nM. For the same compound, in assay [2] (given as class symbols), the 50% inhibitory concentration (IC50) was less than 100 nM.
On to `Cc1cncc(-n2c(=O)nc(Nc3cc4cn(C)nc4cc3Cl)n(Cc3cc(F)ccc3F)c2=O)c1` [II-0199], for which, in assay [1] (class symbols), the EC50 is less than 1000 nM. Besides, the IC50 in assay [2] (given as class symbols) is less than 100 nM.
`N#Cc1cc(Cn2c(Nc3ccc4ncccc4c3)nc(=O)n(-c3cncc4ccccc34)c2=O)ccc1F` [II-0200] showed a concentration giving a half-maximal response (EC50) in assay [1] (class symbols) of 1000 to 10000 nM. Moreover, the IC50 in assay [2] (given as class symbols) was less than 100 nM.
In assay [1] (class symbols), `Cc1cncc(-n2c(=O)nc(Nc3cc4cn(C)nc4cc3Cl)n(Cc3cc(F)cc(F)c3)c2=O)c1` [II-0201] yielded an EC50 of less than 1000 nM. For the same compound, the IC50 in assay [2] (given as class symbols) was less than 100 nM.
In the same order, the values of `Cn1cnc(Cn2c(=O)nc(Nc3cc4cn(C)nc4cc3Cl)n(Cc3ccc(F)cc3F)c2=O)n1` [II-0202] are 1000 to 10000 nM and less than 100 nM.
As for `Cc1cncc(-n2c(=O)nc(Nc3ccc4c(c3)CCO4)n(Cc3cc(F)c(F)c(F)c3)c2=O)c1` [II-0203], in assay [1] (class symbols), the concentration giving a half-maximal response (EC50) was less than 1000 nM. In assay [2] (given as class symbols), the IC50 is less than 100 nM.
`Cc1cncc(-n2c(=O)nc(Nc3ccc4ncccc4c3)n(Cc3ccc(F)c(C#N)c3)c2=O)c1` [II-0204]: the EC50 in assay [1] (class symbols) fell in the range of 1000 to 10000 nM. The half-inhibitory concentration (IC50) in assay [2] (given as class symbols) was less than 100 nM.
For the compound `Cc1cncc(-n2c(=O)nc(Nc3cc4cn(C)nc4cc3Cl)n(Cc3cc(Cl)cc(Cl)c3)c2=O)c1` [II-0205], the EC50 in assay [1] (class symbols) was in the range of 1000 to 10000 nM. Also, the concentration for half-maximal inhibition (IC50) in assay [2] (given as class symbols) is less than 100 nM.
For `Cn1cnc(Cn2c(=O)nc(Nc3cc4cn(C)nc4cc3Cl)n(Cc3cc(F)cc(F)c3)c2=O)n1` [II-0207], the 50% effective concentration (EC50) in assay [1] (class symbols) is 1000 to 10000 nM. The IC50 in assay [2] (given as class symbols) was less than 100 nM.
In the case of `Cc1cncc(-n2c(=O)nc(Nc3cc4cn(C)nc4cc3Cl)n(Cc3cc(Br)cc(C#N)c3)c2=O)c1` [II-0210], the EC50 in assay [1] (class symbols) is 1000 to 10000 nM. Also, in assay [2] (given as class symbols), the IC50 was less than 100 nM.
In assay [1] (class symbols), `Cc1cc(F)cc(Cn2c(Nc3cc4cn(C)nc4cc3Cl)nc(=O)n(-c3cncc(C)c3)c2=O)c1` [II-0212] gave an EC50 of less than 1000 nM. In assay [2] (given as class symbols), the concentration for half-maximal inhibition (IC50) was less than 100 nM.
With `CC1c2ccccc2CN1c1nc(=O)n(Cc2ccc[nH]c2=O)c(=O)n1Cc1cc(F)c(F)c(F)c1` (stereo not shown) [II-0213], in assay [1] (class symbols), the EC50 fell in the range of 1000 to 10000 nM. Further, the IC50 in assay [2] (given as class symbols) was less than 100 nM.
